In US20230389548A1, “MIXTURES OF PYRIMIDINES AS HERBICIDAL COMPOSITIONS” (SYNGENTA CROP PROTECTION AG, priority 2020, published 2023):

Key:
Assay in all cases: Post-emergence glasshouse spray test, visual percentage phytotoxicity after 13 days
Format in all cases: in vivo
[1] = test system: Ipomoea hederacea (IPOHE); details: for IPOHE percentage phytotoxicity: B1
Outline: (§1)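 Visual damage score, 0–100 (100 = total damage), taken 13 days after spraying relative to untreated plants; 2–4 replicates in randomised blocks. Spray at 500 l/Ha on 8-day-old pot-grown plants, compound in IF50/acetone then 0.2% Genapol XO80. Mixture expected effect from Colby formula.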

[2] = test system: Echinochloa crus-galli (ECHCG); details: for ECHCG percentage phytotoxicity: B1; for Observed phytotoxicity ECHCG: B2.3.2
Outline: as §1

[3] = test system: Alopecurus myosuroides (ALOMY); details: for ALOMY percentage phytotoxicity: B1
Outline: as §1

[4] = test system: Abutilon threophrasti (ABUTH); details: B1
Outline: as §1

[5] = test system: Amaranthus retroflexus (AMARE); details: B1
Outline: as §1

[6] = test system: Digitaria sanguinalis (DIGSA); details: for DIGSA percentage phytotoxicity: B1
Outline: as §1

Setaria faberi (SETFA) = details: for SETFA percentage phytotoxicity: B1; for Observed phytotoxicity SETFA: B2.3.1
Outline: as §1

Lolium perenne (LOLPE) = details: for LOLPE percentage phytotoxicity: B1; for Observed phytotoxicity LOLPE: B2.3.4
Outline: as §1

Stellaria media (STEME) = details: for STEME percentage phytotoxicity: B1
Outline: as §1

[7] = test system: Chenopodium album (CHEAL); details: B1
Outline: as §1

`CCOC(=O)COc1ncccc1Oc1cc(-n2c(=O)cc(C(F)(F)F)n(C)c2=O)c(F)cc1Cl` [B-V] was tested, and the IPOHE percentage phytotoxicity ([1]; 0.31 g/ha post-emergence) was 58%, the IPOHE percentage phytotoxicity ([1]; 0.625 g/ha post-emergence) was 70% and the IPOHE percentage phytotoxicity ([1]; 1.25 g/ha post-emergence) was 100%. For the same molecule, the IPOHE percentage phytotoxicity ([1]; 2.5 g/ha post-emergence) was 100%, the IPOHE percentage phytotoxicity ([1]; 5 g/ha post-emergence) was 100% and the “Observed phytotoxicity IPOHE” value ([1]; B2.3.6, 0.3125 g/ha post-emergence) was 58%. The ECHCG percentage phytotoxicity ([2]; 0.31 g/ha post-emergence) was 5%, the ECHCG percentage phytotoxicity ([2]; 0.625 g/ha post-emergence) was 3% and the ECHCG percentage phytotoxicity ([2]; 1.25 g/ha post-emergence) was 9%. The ECHCG percentage phytotoxicity ([2]; 2.5 g/ha post-emergence) was 23%, the ECHCG percentage phytotoxicity ([2]; 5 g/ha post-emergence) was 65% and the “Observed phytotoxicity ECHCG” value ([2]; 0.625 g/ha post-emergence) was 3%. The “Observed phytotoxicity ECHCG” value ([2]; 1.25 g/ha post-emergence) was 9%, the “Observed phytotoxicity ECHCG” value ([2]; 2.5 g/ha post-emergence) was 23% and the ALOMY percentage phytotoxicity ([3]; 0.31 g/ha post-emergence) was 2%. It also gave an ALOMY percentage phytotoxicity ([3]; 0.625 g/ha post-emergence) of 2%, an ALOMY percentage phytotoxicity ([3]; 1.25 g/ha post-emergence) of 10% and an ALOMY percentage phytotoxicity ([3]; 2.5 g/ha post-emergence) of 20%. The ALOMY percentage phytotoxicity ([3]; 5 g/ha post-emergence) was 28%, the “Observed phytotoxicity ALOMY” value ([3]; B2.3.5, 1.25 g/ha post-emergence) was 10% and the ABUTH percentage phytotoxicity ([4]; 0.31 g/ha post-emergence) was 97%. The ABUTH percentage phytotoxicity ([4]; 0.625 g/ha post-emergence) was 98%, the ABUTH percentage phytotoxicity ([4]; 1.25 g/ha post-emergence) was 100% and the ABUTH percentage phytotoxicity ([4]; 2.5 g/ha post-emergence) was 100%. The ABUTH percentage phytotoxicity ([4]; 5 g/ha post-emergence) was 100%, the AMARE percentage phytotoxicity ([5]; 0.31 g/ha post-emergence) was 98% and the AMARE percentage phytotoxicity ([5]; 0.625 g/ha post-emergence) was 98%. For the same molecule, the AMARE percentage phytotoxicity ([5]; 1.25 g/ha post-emergence) was 100%, the AMARE percentage phytotoxicity ([5]; 2.5 g/ha post-emergence) was 100% and the AMARE percentage phytotoxicity ([5]; 5 g/ha post-emergence) was 100%. It also gave a DIGSA percentage phytotoxicity ([6]; 0.31 g/ha post-emergence) of 13%, a DIGSA percentage phytotoxicity ([6]; 0.625 g/ha post-emergence) of 43% and a DIGSA percentage phytotoxicity ([6]; 1.25 g/ha post-emergence) of 88%. For the same molecule, the DIGSA percentage phytotoxicity ([6]; 2.5 g/ha post-emergence) was 99%, the DIGSA percentage phytotoxicity ([6]; 5 g/ha post-emergence) was 100% and the “Observed phytotoxicity DIGSA” value ([6]; B2.3.3, 0.625 g/ha post-emergence) was 43%. For the same molecule, the SETFA percentage phytotoxicity (Setaria faberi (SETFA); 0.31 g/ha post-emergence) was 30%, the SETFA percentage phytotoxicity (Setaria faberi (SETFA); 0.625 g/ha post-emergence) was 38% and the SETFA percentage phytotoxicity (Setaria faberi (SETFA); 1.25 g/ha post-emergence) was 85%. For the same molecule, the SETFA percentage phytotoxicity (Setaria faberi (SETFA); 2.5 g/ha post-emergence) was 99%, the SETFA percentage phytotoxicity (Setaria faberi (SETFA); 5 g/ha post-emergence) was 100% and the “Observed phytotoxicity SETFA” value (Setaria faberi (SETFA); 0.625 g/ha post-emergence) was 38%. For the same molecule, the “Observed phytotoxicity SETFA” value (Setaria faberi (SETFA); 1.25 g/ha post-emergence) was 85%, the LOLPE percentage phytotoxicity (Lolium perenne (LOLPE); 0.31 g/ha post-emergence) was 2% and the LOLPE percentage phytotoxicity (Lolium perenne (LOLPE); 0.625 g/ha post-emergence) was 0%. It also gave an LOLPE percentage phytotoxicity (Lolium perenne (LOLPE); 1.25 g/ha post-emergence) of 8%, an LOLPE percentage phytotoxicity (Lolium perenne (LOLPE); 2.5 g/ha post-emergence) of 15% and an LOLPE percentage phytotoxicity (Lolium perenne (LOLPE); 5 g/ha post-emergence) of 25%. For the same molecule, the “Observed phytotoxicity LOLPE” value (Lolium perenne (LOLPE); 1.25 g/ha post-emergence) was 8%, the “Observed phytotoxicity LOLPE” value (Lolium perenne (LOLPE); 2.5 g/ha post-emergence) was 15% and the STEME percentage phytotoxicity (Stellaria media (STEME); 0.31 g/ha post-emergence) was 25%. The STEME percentage phytotoxicity (Stellaria media (STEME); 0.625 g/ha post-emergence) was 83%, the STEME percentage phytotoxicity (Stellaria media (STEME); 1.25 g/ha post-emergence) was 83% and the STEME percentage phytotoxicity (Stellaria media (STEME); 2.5 g/ha post-emergence) was 100%. For the same molecule, the STEME percentage phytotoxicity (Stellaria media (STEME); 5 g/ha post-emergence) was 100%, the “Observed phytotoxicity STEME” value (Stellaria media (STEME); B2.3.7, 0.3125 g/ha post-emergence) was 25% and the CHEAL percentage phytotoxicity ([7]; 0.31 g/ha post-emergence) was 85%. For the same molecule, the CHEAL percentage phytotoxicity ([7]; 0.625 g/ha post-emergence) was 96%, the CHEAL percentage phytotoxicity ([7]; 1.25 g/ha post-emergence) was 93% and the CHEAL percentage phytotoxicity ([7]; 2.5 g/ha post-emergence) was 100%. The CHEAL percentage phytotoxicity ([7]; 5 g/ha post-emergence) was 100%.
